Test results: patent US4487937A, “2-(2-Substitutedamino-4-thiazolyl)-2-(1-methoxy-isopropoxyimino)-acetic acids” (Roussel Uclaf, priority 1977, dated 1984)
Like-named read-outs stand apart in the source and are kept apart here.

Tests used:
Assay in all cases: In vitro MIC, dilution of a liquid medium
Type in all cases: cell-based
[1] = system: Klebsiella pneumoniae 2 536 Resistant Gentamicine; conditions: 37° C., read-out: minimum inhibiting concentration (MIC)
Procedure: (§1) The method used was a dilution of a liquid medium where a series of tubes received the same quantity of a sterile nutritive media and increasing doses of the test compounds were placed therein. Then each tube was seeded with a bacterial strain and was incubated for 24 or 48 hours at 37° C. in an oven. The increasing inhibition was determined by transillumination to determine the minimum inhibiting concentration (MIC in μg/ml) and the results are reported in the following Tables.

[2] = system: Streptococcus pyogenes A 561; conditions: 37° C., read-out: minimum inhibiting concentration (MIC)
Procedure: as §1

[3] = system: Bacillus subtilis ATCC 6 633; conditions: 37° C., read-out: minimum inhibiting concentration (MIC)
Procedure: as §1

[4] = system: Escherichia Coli Resistant Tetracycline ATCC 11 303; conditions: 37° C., read-out: minimum inhibiting concentration (MIC)
Procedure: as §1

[5] = system: Escherichia Coli Exp. TO26 B6; conditions: 37° C., read-out: minimum inhibiting concentration (MIC)
Procedure: as §1

[6] = system: Escherichia Coli Sensitive Tetracycline ATCC 9 637; conditions: read-out: minimum inhibiting concentration (MIC)
Procedure: as §1

[7] = system: Escherichia Coli Resistant Gentamicine, Tobramycine R 55 123 D; conditions: read-out: minimum inhibiting concentration (MIC)
Procedure: as §1

[8] = system: Staphylococcus aureus ATCC 6 538 Penicillin-Sensitive; conditions: 37° C., read-out: minimum inhibiting concentration (MIC)
Procedure: as §1

[9] = system: Streptococcus faecalis 99 F 74; conditions: Enterococcus faecalis, 99F74, 37° C., read-out: minimum inhibiting concentration (MIC)
Procedure: as §1

[10] = system: Serratia Resistant Gentamicine 2 532; conditions: 37° C., read-out: minimum inhibiting concentration (MIC)
Procedure: as §1

Enterobacter cloacae 681 = conditions: 37° C., read-out: minimum inhibiting concentration (MIC)
Procedure: as §1

Providencia Du 48 = conditions: 37° C., read-out: minimum inhibiting concentration (MIC)
Procedure: as §1

[11] = system: Streptococcus faecalis 5 432; conditions: Enterococcus faecalis, 5432, 37° C., read-out: minimum inhibiting concentration (MIC)
Procedure: as §1

[12] = system: Proteus mirabilis (indol -) A 235; conditions: 37° C., read-out: minimum inhibiting concentration (MIC)
Procedure: as §1

[13] = system: Salmonella typhimurium 420; conditions: Salmonella enterica, 37° C., read-out: minimum inhibiting concentration (MIC)
Procedure: as §1

[14] = system: Staphylococcus aureus UC 1 128 Penicillin-resistant; conditions: 37° C., read-out: minimum inhibiting concentration (MIC)
Procedure: as §1

[15] = system: Klebsiella pneumoniae Exp. 52 145; conditions: 37° C., read-out: minimum inhibiting concentration (MIC)
Procedure: as §1

[16] = system: Proteus vulgaris (indol +) A 232; conditions: 37° C., read-out: minimum inhibiting concentration (MIC)
Procedure: as §1

[17] = system: Staphylococcus aureus exp. n° 54 146; conditions: 37° C., read-out: minimum inhibiting concentration (MIC)
Procedure: as §1

CC(=O)OCC1=C(C(=O)O)N2C(=O)C(NC(=O)/C(=N\OC(C)(C)C(=O)O)c3csc(N)n3)[C@H]2SC1 (some centres unmarked) [Example 14, disodium 7-[2-(2-amino-4-thiazolyl)-2-(1-carboxy-1-methylethoxyimino)-acetamido]-3-acetoxymethyl-ceph-3-eme-4-carboxylate]
MIC ([1]; 24 H): 1 µg/mL
MIC ([1]; 48 H): 1 µg/mL
MIC ([2]; A561, 24 H): 1 µg/mL
MIC ([2]; A561, 48 H): 1 µg/mL
MIC ([3]; ATCC6, 24 H): 10 µg/mL
MIC ([3]; ATCC6, 48 H): > 40 µg/mL
MIC ([4]; ATCC11, 24 H): 0.2 µg/mL
MIC ([4]; ATCC11, 48 H): 0.2 µg/mL
MIC ([5]; 24 H): 0.5 µg/mL
MIC ([5]; 48 H): 0.5 µg/mL
MIC ([6]; ATCC9, 24 h): 0.5 µg/mL
MIC ([6]; ATCC9, 48 h): 0.5 µg/mL
MIC ([7]; 24 h): 0.5 µg/mL
MIC ([7]; 48 h): 0.5 µg/mL
MIC ([8]; ATCC6, 24 H): 20 µg/mL
MIC ([8]; ATCC6, 48 H): 20 µg/mL
MIC ([9]; 24 H): > 40 µg/mL
MIC ([9]; 48 H): > 40 µg/mL
MIC ([10]; 24 H): 1 µg/mL
MIC ([10]; 48 H): 1 µg/mL
MIC (Enterobacter cloacae 681; 24 H): 40 µg/mL
MIC (Enterobacter cloacae 681; 48 H): > 40 µg/mL
MIC (Providencia Du 48; DU48, 24 H): 2 µg/mL
MIC (Providencia Du 48; DU48, 48 H): 3 µg/mL
MIC ([11]; 24 H): > 40 µg/mL
MIC ([11]; 48 H): > 40 µg/mL
MIC ([12]; 24 H): 0.05 µg/mL
MIC ([12]; 48 H): 0.05 µg/mL
MIC ([13]; 24 H): 1 µg/mL
MIC ([13]; 48 H): 1 µg/mL
MIC ([14]; UC1, 24 H): 20 µg/mL
MIC ([14]; UC1, 48 H): 40 µg/mL
MIC ([15]; EXP.52145, 24 H): 1 µg/mL
MIC ([15]; EXP.52145, 48 H): 1 µg/mL
MIC ([16]; 24 H): 0.1 µg/mL
MIC ([16]; 48 H): 3 µg/mL
MIC ([17]; 24 H): 20 µg/mL
MIC ([17]; 48 H): > 40 µg/mL
